Entries after “also recorded” stand apart in the source; their conditions may differ. Read-outs that look alike come from different tables or passages of the source.
Key:
[1] = Body weight follow-up during treatment in rats fed a high fat/medium fructose diet (WD); format: in vivo, rat; conditions: oral once daily, pioglitazone 10, metformin 50, GW501516 10, compound I.1 10 mg/kg (alone or +metformin 50 mg/kg)
Text: The first set of rats was undergoing an OGTT after 3 weeks of treatment (half rats/group of the clamp arm) and the second set was also undergoing an OGTT after 3 weeks of treatment (half rats/group of clamp arm) and the Histology study (3 rats/group). […] Homogenous mild obese and insulin resistant rats were allocated into the different treatment groups and western diet was continued until the end of the experiment. Given that, the 2 series started with a gap of one week Dosage regimen: Rats were treated once daily via the oral route, in the morning. The duration of the treatment was between 5 and 5.5 weeks. […], 10 mg/Kg (n=12) […] The second set of rats was weighted at 8:30 on days 17 and 21, at 1:45 pm on day 24 and at 11:10 am on day 28.

[2] = Triglycerides content in the liver after 5 weeks of treatment in WD fed rats (enzymatic-colorimetric method); format: in vivo, rat; conditions: pioglitazone 10, GW501516 10, compound I.1 at any used dose
Protocol: (§1) At the end of the clamp procedure (9.5 hours fasting), perirenal, retroperitoneal, epididymal and inguinal fat pads and liver weights were recorded. Blood was collected from cardiac puncture and plasmas were stored at −80° C. for further assays if needed (depending on the radioactive state of samples). Liver triglyceride content was assessed (enzymatic-colorimetric method) as well as liver and adipose tissue TNF-α content (ELISA method).

[3] = Plasma biochemistry after 17 days of treatment in WD fed rats (glycemia, insulin, HOMA-IR, adiponectin, FFA, TG); format: in vivo, rat; conditions: for Decrease of HOMA-IR / Decrease of plasma insulin: 4 h fasted; for Decrease of HOMA-IR: pioglitazone 10, metformin 50, GW501516 10, compound I.1 10 mg/kg; for Decrease of plasma insulin: pioglitazone 10, metformin 50, GW501516 10, compound I.1 10 mg/kg +metformin 50 mg/kg; for Plasma adiponectin levels: pioglitazone 10, metformin 50, GW501516 10, compound I.1 3 and 10 mg/kg
[4] = Liver and adipose tissue weights after 5 weeks of treatment in WD fed rats; format: in vivo, rat; conditions: for Decrease of liver weight: non significant, pioglitazone 10, GW501516 10 mg/kg
Protocol: as §1

[5] = test system: TNF-alpha-activated HUVECs; conditions: under physiological flow; cited from earlier work
rat PPARα = target: T1, rat PPARα (Rattus norvegicus, UniProt P37230); assay: GAL4-PPAR chimera transactivation assay in CV-1 cells at 10% or 0.1% serum (Example 4); format: cell-based; conditions: read-out: GAL4-chimera (rat) EC50 (μM) hPPARα
T1 construct: expressed in transfected cells; host or cells: CV-1
T1 sequence (P37230 239-466 limits assumed): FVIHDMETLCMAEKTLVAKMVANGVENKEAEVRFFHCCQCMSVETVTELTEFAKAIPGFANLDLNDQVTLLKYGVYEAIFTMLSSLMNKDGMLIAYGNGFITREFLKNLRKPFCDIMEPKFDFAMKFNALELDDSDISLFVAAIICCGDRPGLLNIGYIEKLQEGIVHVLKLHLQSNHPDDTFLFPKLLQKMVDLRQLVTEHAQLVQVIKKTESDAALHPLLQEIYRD

[6] = Euglycemic-hyperinsulinemic 2 steps clamp with 3H-glucose after 5 weeks of treatment in WD fed rats; format: in vivo, rat; conditions: for Increase of glycolysis: metformin 50, GW501516 10, compound I.1 10 mg/kg (alone or +metformin 50 mg/kg); for Increase of GIR (glucose infusion rate) during the first step / Decrease of HGP (hepatic glucose production): clamp 0.2 U/kg/h insulin, pioglitazone 10, metformin 50, compound I.1 10 mg/kg +metformin 50 mg/kg
Protocol: After 4 weeks of treatment, a catheter was implanted into the femoral vein under isoflurane anaesthesia and a period of 5-6 days was respected for recovery. […] The morning of the clamp procedure, rats were treated and fasted for 6 hours prior to tracer, glucose and insulin infusions. The beginning of the clamp procedure was performed in the middle of the dark cycle.
The euglycemic hyperinsulinemic 2 steps insulin clamp was performed using 0.2 U/kg/h and 0.8 U/kg/h insulin infusion associated with 3H-glucose infusion. We then assessed:
During the clamp procedure, a bolus (30 μCi) of D-[3-3H]glucose was first injected followed by 4 μCi/min/kg infusion rate during all the experiment to ensure a detectable plasma D[3-3H]glucose enrichment. A bolus of insulin (100 mU) was first injected, and insulin was then infused at a rate of 0.2 U/kg/h for the first 2 hours and 0.8 U/kg/h from 120 minutes to 210 minutes.
Throughout the infusion, glycaemia was assessed with a blood glucose meter from the tip of the tail vein when needed. Euglycemia was maintained by periodically (every 10 minutes) adjusting a variable infusion of 30% glucose. Plasma glucose concentrations and D-[3-3H]glucose specific activity were determined during stable phase in 10 μl of blood sampled from the tip of the tail vein every 20 minutes from 60 to 120 minutes during the first step and from 150 to 210 minutes during the second step.
For glucose turnover measurements, D-[3-3H]glucose enrichments were determined from total blood after deproteinization by a Zn(OH)2 precipitate. Briefly, an aliquot of the supernatant was evaporated to dryness to determine the radioactivity corresponding to D-3-3H. In a second aliquot of the same supernatant, glucose concentration was assessed by the glucose oxidase method (Biomérieux, France).
Calculations for glucose turnover measurements were made from parameters obtained during the infusions in steady-state condition ([…]). Briefly, the D-[3-3H]glucose specific activity was calculated by dividing the D-[3-3H]glucose enrichment by the plasma glucose concentration. The whole body glucose turnover rate was calculated by dividing the rate of D[3-3H]glucose by the D-[3-3H]glucose plasma specific activity. For each rat, the mean values were calculated and averaged with values from rats of the same group. The whole body glycolysis rate was measured by assessing the amount of tritiated water accumulated in the blood during the 3H-glucose infusion and the whole body glycogen synthesis rate was calculated by the difference between the whole body glucose turnover and the whole body glycolysis rate.

rat PPARδ = target: T2, rat PPARδ (Rattus norvegicus, UniProt Q62879); assay: GAL4-PPAR chimera transactivation assay in CV-1 cells at 10% or 0.1% serum (Example 4); format: cell-based; conditions: read-out: GAL4-chimera (rat) EC50 (μM) hPPARδ
T2 construct: expressed in transfected cells; host or cells: CV-1
T2 sequence (Q62879 139-440 limits assumed): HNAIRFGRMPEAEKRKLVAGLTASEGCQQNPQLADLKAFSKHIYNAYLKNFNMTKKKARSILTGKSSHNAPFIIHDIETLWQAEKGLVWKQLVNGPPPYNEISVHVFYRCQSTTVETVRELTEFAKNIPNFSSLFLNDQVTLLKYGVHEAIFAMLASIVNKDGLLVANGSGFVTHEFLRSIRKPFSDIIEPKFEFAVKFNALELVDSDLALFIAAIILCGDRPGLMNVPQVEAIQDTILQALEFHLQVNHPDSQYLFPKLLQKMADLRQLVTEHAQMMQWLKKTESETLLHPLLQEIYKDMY
Protocol: Assays were performed in triplicate for GAL4-chimeras. Experiments were repeated at least three times.
The EC50 were calculated as previously described.
The transactivation activities of the compound I.1 and GW501516 are measured in rat and mouse transactivation assays at 10% and 0.1% serum (Tables 11 and 12).

TNF-α = TNF-α content in liver and epididymal white adipose tissue after 5 weeks of treatment in WD fed rats (ELISA); format: in vivo, rat; conditions: for Decrease of TNF-α levels in epididymal white adipose tissues: metformin 50, GW501516 10, compound I.1 10 mg/kg (alone or +metformin 50 mg/kg)
Protocol: as §1

[7] = Oral glucose tolerance test after 3 weeks of treatment in WD fed rats; format: in vivo, rat; conditions: 6 h fasted, oral glucose 2.5 g/kg after 3 weeks, pioglitazone 10, metformin 50, GW501516 10, compound I.1 10 mg/kg

SMILES | Body weight / body weight gain during treatment [1] | Decrease of HOMA-IR [3] [%] | Decrease of plasma insulin [3] [%] | Plasma adiponectin levels [3] | Decrease of liver weight [4] [%] | Increase of glycolysis ([6]; clamp 0.8 U/kg/h insulin) [%] | Decrease of TNF-α levels in epididymal white adipose tissues (TNF-α) [%] | Increase of GIR (glucose infusion rate) during the first step ([6]; after 5 weeks) [%] | Decrease of HGP (hepatic glucose production) [6] [%] | other results
Cc1cc(SCc2sc(-c3ccc(C(F)(F)F)cc3)nc2C)ccc1OCC(=O)O [GW-501516] | slightly decreased body weight the first week of treatment but not in a significant manner; also recorded: significant after 4 weeks of treatment | ~25 | 21 | prevented the decrease | 8 | 21 | 60 | – | – | Triglycerides content in the liver [2]: tended to decrease; also recorded: did not significantly decrease; Increase of plasma TG ([3]; GW501516 10 mg/kg, compound I.1 10 mg/kg +metformin 50 mg/kg): 84%; Rolling and adhesion of hPMNs on TNF-alpha-activated HUVECs [5]: inhibited markedly; EC50 (rat PPARα; 0.1% serum): 1.96 ± 0.7 µM; EC50 (rat PPARα; 10% serum): > 10 µM; EC50 (rat PPARδ; 0.1% serum): 0.072 ± 0.025 µM; EC50 (rat PPARδ; 10% serum): 0.427 ± 0.29 µM; TNF-α content in the liver (TNF-α; compound I.1 10 mg/kg +metformin 50 mg/kg, GW501516 10 mg/kg, other groups): tended to decreased; Decrease of TNF-α level in the liver (TNF-α; tendency, compound I.1 10 mg/kg +metformin 50 mg/kg, GW501516 10 mg/kg): 12%; Glucose tolerance (OGTT, AUC, glycemia variation) [7]: strong tendency to improved glucose tolerance
CN(C)C(=N)N=C(N)N [metformin] | decreased | ~50 | 44 | did not prevent a decrease | – | 20 | 25 | 112 | 40 | Body weight / body weight gain during treatment ([1]; listed as Metformin): significantly decreased body weight after 2 weeks of treatment; Decrease of perirenal white adipose tissue ([4]; tendency, metformin 50 mg/kg alone or with compound I.1 10 mg/kg): 27%; Insulin resistance / insulin sensitizing effect (overall) ([6]; WD fed rats, after 5 weeks, compound I.1 dose not specified (3 and 10 mg/kg groups), pioglitazone 10, metformin 50 mg/kg): insulin sensitizing effects; Whole body glucose oxidation ([6]; WD fed rats, clamp after 5 weeks, metformin 50 mg/kg, compound I.1 dose not specified, alone or associated): tended to increase; GIR during the second step ([6]; clamp 0.8 U/kg/h insulin, after 5 weeks, pioglitazone 10, metformin 50 mg/kg, other groups): tended to increase GIR (not significantly)
CCc1ccc(CCOc2ccc(CC3SC(=O)NC3=O)cc2)nc1 (centres unmarked) [pioglitazone] | – | ~50 | 39 | – | 12 | – | – | 138 | 47 | –
